This is an account of results in paper PMC5484485, “In vitro and in vivo effects of kisspeptin antagonists p234, p271, p354, and p356 on GPR54 activation” (PLoS ONE, 2017).

Ends that are not written are not given here.

The target of the experiment is human GPR54 (Homo sapiens, UniProt Q969F8). The experiment can be described thus: Flow cytometric calcium flux assay, response to peptide alone (agonist / intrinsic activity). The following applies: CHEM1-GPR54 cells in suspension, Fluo-3 AM, flow cytometry, 10^-13 to 10^-5 M, n = 3. More on the design: host or cells: rat hematopoietic CHEM1 cells expressing endogenous Galpha15. It counts as cell-based. The method, then: In vitro analyses of the effects of kisspeptin and kisspeptin antagonists, were performed using HT[…] cells (rat hematopoietic CHEM1 cells expressing endogenous Gα15 and, stably expressing the human GPR54 receptor (Millipore BV, the Netherlands), CHEM1-GPR54. Cells were counted and suspended in HBSS+++ at a concentration of 5*10^6 cells/ml. To load the cells with the fluorescent dye ester they were incubated in HBSS+++ adjusted to a concentration of 2 μM Fluo-3 AM (Molecular Probes, Life Technologies, the Netherlands) for 1h at 37°C under agitation in the dark. After incubation, the cells were washed by adding HBSS+++ to a volume of 10 ml followed by centrifugation (5 min, 150 x g) to remove excess of Fluo-3AM. […] Thereafter the tube was removed briefly and 25 μl peptide (see below) was added, after which aspiration and analysis continued. For statistical analyses fluorescent data recorded during the time interval 30-60 seconds after initiation of measurement were used. […] Experiments were performed 3 times. Representative flow cytometry results are depicted in Fig 1. […] We then assessed whether these antagonists could compete with KP10 for its receptor. […] For this purpose 25 μl quantities of the antagonists were added to 200 μl of Fluo-3 AM labelled cells (10^6 cells/ml) and incubated for 15 min. […] Peptides p354 and p356 were tested three times with both human and canine KP10; while peptides p234 and p271 were tested three times with human KP10 and once with canine KP10. […] A multivariate general linear model was set up to analyze differences in calcium response between the different concentrations, with Dunnett's test as a post hoc procedure for the antagonists and Bonferroni's test for the agonists.
human GPR54, sequence (Q969F8 whole entry): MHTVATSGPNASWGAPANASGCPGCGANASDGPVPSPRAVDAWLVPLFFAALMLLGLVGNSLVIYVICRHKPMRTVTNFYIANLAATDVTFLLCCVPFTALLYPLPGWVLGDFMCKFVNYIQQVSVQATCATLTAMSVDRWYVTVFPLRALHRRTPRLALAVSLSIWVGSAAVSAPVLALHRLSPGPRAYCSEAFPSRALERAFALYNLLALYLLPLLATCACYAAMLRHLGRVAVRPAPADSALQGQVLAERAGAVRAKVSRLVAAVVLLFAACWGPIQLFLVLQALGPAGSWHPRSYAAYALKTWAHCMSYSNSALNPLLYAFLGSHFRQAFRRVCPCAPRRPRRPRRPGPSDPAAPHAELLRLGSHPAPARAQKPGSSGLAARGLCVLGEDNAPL

Take `CC(C)C[C@H](NC(=O)CNC(=O)[C@H](Cc1ccccc1)NC(=O)[C@H](CO)NC(=O)[C@H](CC(N)=O)NC(=O)[C@H](Cc1c[nH]c2ccccc12)NC(=O)[C@H](CC(N)=O)NC(=O)[C@@H](N)Cc1ccc(O)cc1)C(=O)N[C@@H](CCCNC(=N)N)C(=O)N[C@@H](Cc1ccccc1)C(N)=O` [hKP10, Tyr-Asn-Trp-Asn-Ser-Phe-Gly-Leu-Arg-Phe-NH2, reference compound]: the EC50 is 1.2 nM.

Consider “YNWNVFGLRY-NH2 [cKP10, Tyr-Asn-Trp-Asn-Val-Phe-Gly-Leu-Arg-Tyr-NH2, reference compound]”, for which the EC50 turned out to be 8 nM.
